Measured values reported in the NIST ThermoML archive (doi:10.1016/j.jct.2015.11.020).
“And” between values parts separate entries of the source, which are not always exact repeats. Identical values can stand only once. Numbers after ± are expanded uncertainties.

Test: mn = molality of the nth substance listed, in mol/kg
Conditions: 100 kPa, Liquid; for speed of sound: Frequency=3 MHz, Sing-around technique in a fixed-path interferometer; for mass density: Vibrating tube method

N[C@@H](CO)C(=O)O [L-serine] + O
Conditions | mass density, 305.15 K [kg/m3] | mass density, 310.15 K [kg/m3] | mass density, 315.15 K [kg/m3] | speed of sound, 305.15 K [m/s] | speed of sound, 310.15 K [m/s] | speed of sound, 315.15 K [m/s]
m1 = 0.1012 | 999.763 ± 1 | 997.637 ± 1 | 995.748 ± 1 | 1519.7 ± 1.6 | 1529.4 ± 1.6 | 1537.7 ± 1.6
m1 = 0.1997 | 1003.99 ± 1 | 1001.83 ± 1 | 999.945 ± 1 | 1525.5 ± 1.6 | 1535.1 ± 1.6 | 1543.3 ± 1.6
m1 = 0.3 | 1008.2 ± 1.1 | 1006.11 ± 1.1 | 1004.22 ± 1.1 | 1531.1 ± 1.6 | 1540.5 ± 1.6 | 1548.4 ± 1.6
m1 = 0.3986 | 1012.53 ± 1.1 | 1010.31 ± 1.1 | 1008.42 ± 1.1 | 1536.8 ± 1.7 | 1546.1 ± 1.7 | 1554 ± 1.7
m1 = 0.4987 | 1016.75 ± 1.1 | 1014.57 ± 1.1 | 1012.68 ± 1.1 | 1542.2 ± 1.7 | 1551.4 ± 1.7 | 1559.2 ± 1.7
m1 = 0.6008 | 1021.43 ± 1.2 | 1018.92 ± 1.2 | 1017.03 ± 1.1 | 1548 ± 1.8 | 1556.9 ± 1.8 | 1564.5 ± 1.7
m1 = 0.6973 | 1025.53 ± 1.2 | 1023.03 ± 1.2 | 1021.14 ± 1.2 | 1553.3 ± 1.8 | 1562.2 ± 1.8 | 1569.6 ± 1.8
m1 = 0.8 | 1029.74 ± 1.2 | 1027.41 ± 1.2 | 1025.52 ± 1.2 | 1558.8 ± 1.8 | 1567.6 ± 1.8 | 1575 ± 1.8
m1 = 0.9003 | 1033.96 ± 1.3 | 1031.68 ± 1.3 | 1029.79 ± 1.3 | 1564 ± 1.9 | 1572.7 ± 1.9 | 1579.9 ± 1.9
m1 = 0.9963 | 1037.97 ± 1.3 | 1035.77 ± 1.4 | 1033.88 ± 1.3 | 1569.2 ± 1.9 | 1577.7 ± 1.9 | 1584.9 ± 1.9

C[C@@H](O)[C@H](N)C(=O)O [L-threonine] + O
Conditions | mass density, 305.15 K [kg/m3] | mass density, 310.15 K [kg/m3] | mass density, 315.15 K [kg/m3] | speed of sound, 305.15 K [m/s] | speed of sound, 310.15 K [m/s] | speed of sound, 315.15 K [m/s]
m1 = 0.09989 | 999.283 ± 1 | 997.513 ± 1 | 995.687 ± 1 | 1521 ± 1.5 | 1530.7 ± 1.5 | 1538.9 ± 1.5
m1 = 0.1997 | 1003.52 ± 1 | 1001.69 ± 1 | 999.928 ± 1 | 1528 ± 1.5 | 1537.5 ± 1.5 | 1545.4 ± 1.5
m1 = 0.2989 | 1007.74 ± 1 | 1005.85 ± 1 | 1004.15 ± 1 | 1535 ± 1.6 | 1544.6 ± 1.6 | 1552 ± 1.6
m1 = 0.3989 | 1011.99 ± 1.1 | 1010.04 ± 1.1 | 1008.4 ± 1.1 | 1542.2 ± 1.6 | 1551.1 ± 1.6 | 1559 ± 1.6
m1 = 0.5002 | 1016.3 ± 1.1 | 1014.29 ± 1.1 | 1012.7 ± 1.1 | 1549.1 ± 1.7 | 1558.1 ± 1.7 | 1566 ± 1.7
m1 = 0.5982 | 1020.46 ± 1.1 | 1018.39 ± 1.1 | 1016.87 ± 1.1 | 1555.7 ± 1.7 | 1564.8 ± 1.7 | 1573.1 ± 1.7
m1 = 0.6471 | 1022.54 ± 1.2 | 1020.44 ± 1.2 | 1018.94 ± 1.2 | 1559 ± 1.7 | 1567.9 ± 1.8 | 1576.5 ± 1.8
m1 = 0.7007 | 1024.82 ± 1.2 | 1022.69 ± 1.2 | 1021.22 ± 1.2 | 1562.4 ± 1.8 | 1571.7 ± 1.8 | 1580.1 ± 1.8
m1 = 0.7476 | 1026.81 ± 1.2 | 1024.65 ± 1.2 | 1023.22 ± 1.2 | 1565.7 ± 1.9 | 1575.1 ± 1.9 | 1583.3 ± 1.8
m1 = 0.7854 | 1028.42 ± 1.2 | 1026.23 ± 1.3 | 1024.82 ± 1.2 | 1568.4 ± 1.9 | 1577.8 ± 1.8 | 1585.9 ± 1.9

CN(C)C(=N)NC(=N)N.Cl [N,N-dimethylimidodicarbonimidic diamide hydrochloride] + O
Conditions | mass density, m1 = 0.03 [kg/m3] | mass density, m1 = 0.045 [kg/m3] | mass density, m1 = 0.06 [kg/m3] | mass density, m1 = 0.09 [kg/m3] | speed of sound, m1 = 0.03 [m/s] | speed of sound, m1 = 0.045 [m/s] | speed of sound, m1 = 0.06 | speed of sound, m1 = 0.09 [m/s]
305.15 K | 996.159 ± 1 | 996.716 ± 1 | 997.319 ± 1 | 998.393 ± 1 | 1516.5 ± 1.6 | 1518 ± 1.6 | 1519.3 ± 1.5 m/s and 1519.3 ± 1.6 m/s | 1522 ± 1.6
310.15 K | 994.44 ± 1 | 994.953 ± 1 | 995.586 ± 1 | 996.654 ± 1 | 1526.3 ± 1.6 | 1527.7 ± 1.6 | 1529 ± 1.6 m/s | 1531.5 ± 1.6
315.15 K | 992.549 ± 1 | 993.115 ± 1 | 993.681 ± 1 | 994.744 ± 1 | 1534.4 ± 1.6 | 1535.9 ± 1.6 | 1537.2 ± 1.6 m/s | 1539.6 ± 1.6

O [water] + CN(C)C(=N)NC(=N)N.Cl
m2 = 0
Conditions | mass density [kg/m3] | speed of sound [m/s]
305.15 K | 995.038 ± 1 | 1513.7 ± 1.6
310.15 K | 993.328 ± 1 | 1523.6 ± 1.6
315.15 K | 991.439 ± 1 | 1532.1 ± 1.6

O [water] + C[C@@H](O)[C@H](N)C(=O)O
m2 = 0
Conditions | mass density [kg/m3] | speed of sound [m/s]
305.15 K | 995.038 ± 1 | 1513.7 ± 1.6
310.15 K | 993.328 ± 1 | 1523.6 ± 1.6
315.15 K | 991.439 ± 1 | 1532.1 ± 1.6

O [water] + N[C@@H](CO)C(=O)O
m2 = 0
Conditions | mass density [kg/m3] | speed of sound [m/s]
305.15 K | 995.038 ± 1 | 1513.7 ± 1.6
310.15 K | 993.328 ± 1 | 1523.6 ± 1.6
315.15 K | 991.439 ± 1 | 1532.1 ± 1.6
